From patent publication US20100204145A1, “USE OF A PEPTIDE AS A THERAPEUTIC AGENT” (priority 2007, published 2010)
Ends that are not written are not given here.

Tests used:
Human A549 cells = assay: Apoptosis prevention assay (C2 ceramide, Annexin-5); assay type: cell-based; conditions: 10 micrograms per ml, 30 min pretreatment, then C2 ceramide
Interleukin-4 (IL-4) = assay: Th1/Th2 cytokine profiling assay, IL-4; assay type: cell-based; conditions: 10 micrograms per ml; Ovalbumin-restimulated spleen cells of immunized Balb/c mice; 72 hours
Source text: (§1) The Balb/c mice (originated in 1923, it is a popular strain and is used in many different research disciplines. Also classified as an inbred from the production of 20 or more successive brother-sister matings, the Balb/c mouse is albino and small in size) were immunized on Days 1, 15, and 29 with Ovalbumin (Ovalbumin is the main protein found in egg white, commonly used to stimulate an immunological reaction in test animals) in PBS (5 micrograms/injection). On day 50, spleens of the mice were harvested (3 weeks after last boost with Ovalbumin). […] Thereafter, additional Ovalbumin was added to the cells at 10 micrograms/ml for in vitro restimulation of the cells. 72 hours later, cell supernatants were harvested and assayed using the Becton Dickinson Mouse Th1/Th2 Cytokine CBA Kit. This kit can be used to measure Interleukin-2 (IL-2), Interleukin-4 (IL-4), Interleukin-5 (IL-5), Interferon-γ (IFN-γ), and Tumor Necrosis Factor-α (TNF-α) protein levels in a single sample. The kit performance has been optimized for analysis of physiologically relevant concentrations (μg/ml levels) of specific cytokine proteins in tissue culture supernatants and serum samples.

[1] = test system: Tumor Necrosis Factor-α (TNF-α); assay: Th1/Th2 cytokine profiling assay, TNF-α; assay type: cell-based; conditions: 10 micrograms per ml; Ovalbumin-restimulated spleen cells of immunized Balb/c mice; 72 hours
Source text: (§2) The Balb/c mice (originated in 1923, it is a popular strain and is used in many different research disciplines. Also classified as an inbred from the production of 20 or more successive brother-sister matings, the Balb/c mouse is albino and small in size) were immunized on Days 1, 15, and 29 with Ovalbumin (Ovalbumin is the main protein found in egg white, commonly used to stimulate an immunological reaction in test animals) in PBS (5 micrograms/injection). On day 50, spleens of the mice were harvested (3 weeks after last boost with Ovalbumin). […] Thereafter, additional Ovalbumin was added to the cells at 10 micrograms/ml for in vitro restimulation of the cells. 72 hours later, cell supernatants were harvested and assayed using the Becton Dickinson Mouse Th1/Th2 Cytokine CBA Kit.

Interleukin-5 (IL-5) = assay: Th1/Th2 cytokine profiling assay, IL-5; assay type: cell-based; conditions: 10 micrograms per ml; Ovalbumin-restimulated spleen cells of immunized Balb/c mice; 72 hours
Source text: as §1

Interferon-γ (IFN-γ) = assay: Th1/Th2 cytokine profiling assay, IFN-γ; assay type: cell-based; conditions: 10 micrograms per ml; Ovalbumin-restimulated spleen cells of immunized Balb/c mice; 72 hours
Source text: as §2

Interleukin-2 (IL-2) = assay: Th1/Th2 cytokine profiling assay, IL-2; assay type: cell-based; conditions: 10 micrograms per ml; Ovalbumin-restimulated spleen cells of immunized Balb/c mice; 72 hours
Source text: as §1

RAW 264.7 cells = assay: Phagocytosis assay (Fluorescein-labeled Escherichia coli, flow cytometry); assay type: cell-based, Mouse; conditions: 10 micrograms per ml, combination peptide 1:peptide 2 1.10 mole:0.90 mole
HIV-1IIIB = assay: HIV-1 antiviral assay in CEM-SS cells (MTS readout); assay type: cell-based; conditions: positive controls

Row | Compound | prevention (reduction) of ceramide-induced apoptosis on human lung cells (Human A549 cells) [%] | IL-4 spleen cells; TH2 response (% of control) (Interleukin-4 (IL-4)) | TNF-a spleen cells; TH1 response (% of control) [1] | IL-5 spleen cells; TH2 response (% of control) (Interleukin-5 (IL-5)) | IFNγ spleen cells; TH1 response (% of control) (Interferon-γ (IFN-γ)) | IL-2 spleen cells (% of control) (Interleukin-2 (IL-2)) | increase on the phagocytic activity of murine macrophages (RAW 264.7 cells) [%] | antiviral activity of positive control compounds (HIV-1) (HIV-1IIIB)
1 | Tyr-Gly-Gly-Phe-Leu-Arg-Arg-OH (YGGFLRR-OH) [peptide 2] | 11.5 | 81.2 % of control | 90.3 % of control | 66.0 % of control | 126.8 % of control | 93.8 % of control | 25.7 | –
2 | Cc1cn([C@H]2C[C@H](N=[N+]=[N-])[C@@H](CO)O2)c(=O)[nH]c1=O [AZT] | – | – | – | – | – | – | – | expected levels of antiviral activity
3 | CC(C)(C)NC(=O)[C@@H]1CN(Cc2cccnc2)CCN1C[C@@H](O)C[C@@H](Cc1ccccc1)C(=O)N[C@H]1c2ccccc2C[C@H]1O [indinavir] | – | – | – | – | – | – | – | expected levels of antiviral activity
4 | CCNC(=O)[C@@H]1CCCN1C(=O)[C@H](CCCNC(=N)N)NC(=O)[C@H](CC(C)C)NC(=O)[C@@H](COC(C)(C)C)NC(=O)[C@H](Cc1ccc(O)cc1)NC(=O)[C@H](CO)NC(=O)[C@H](Cc1c[nH]c2ccccc12)NC(=O)[C@H](Cc1cnc[nH]1)NC(=O)[C@@H]1CCC(=O)N1 [peptide 1, Pyr-His-Trp-Ser-Tyr-D-Ser(tBu)-Leu-Arg-Pro-NHEt] | 26.4 | 131.6 % of control | 121.2 % of control | 80.4 % of control | 76.6 % of control | 175.3 % of control | 31.4 | –
